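Here, GI50 denotes the concentration required for 50% inhibition of growth. The concentration for full growth arrest is given as TGI.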
Tests used:
Experiment in all cases: DTP human tumour cell line panel, 384-well format
[1] = tested on: HOP-92 NSCLC
[2] = tested on: A549 NSCLC
[3] = tested on: K-562 leukemia
[4] = tested on: NCI-H460 NSCLC
[5] = tested on: IGROV1 ovarian
[6] = tested on: SR leukemia
[7] = tested on: SF-268 CNS
[8] = tested on: SF-295 CNS
[9] = tested on: BT-549 breast
[10] = tested on: SNB-19 CNS
[11] = tested on: HOP-62 NSCLC
[12] = tested on: NCI-H226 lung
[13] = tested on: ACHN renal
[14] = tested on: U251 glioblastoma
[15] = tested on: LOX IMVI melanoma
[16] = tested on: T-47D breast
[17] = tested on: COLO 205 colon
[18] = tested on: SK-MEL-5 melanoma
[19] = tested on: HCC-2998 colon
[20] = tested on: RXF 393 renal
[21] = tested on: HS 578T breast
[22] = tested on: EKVX NSCLC
[23] = tested on: TK-10 renal
[24] = tested on: SK-OV-3 ovarian
[25] = tested on: OVCAR-8 ovarian
[26] = tested on: PC-3 prostate
[27] = tested on: 786-0 renal
[28] = tested on: HL-60(TB) leukemia
[29] = tested on: A498 renal
[30] = tested on: MOLT-4 leukemia
[31] = tested on: MALME-3M melanoma
[32] = tested on: OVCAR-5 ovarian
[33] = tested on: M14 melanoma
[34] = tested on: RPMI-8226 leukemia
[35] = tested on: MDA-MB-468 breast
[36] = tested on: UACC-257 melanoma
[37] = tested on: HT29 colon
[38] = tested on: NCI/ADR-RES ovarian
[39] = tested on: CAKI-1 renal
[40] = tested on: DU-145 prostate
[41] = tested on: SF-539 CNS
[42] = tested on: UACC-62 melanoma
[43] = tested on: OVCAR-3 ovarian
[44] = tested on: NCI-H322M lung
[45] = tested on: NCI-H522 lung
[46] = tested on: SNB-75 CNS
[47] = tested on: UO-31 renal
[48] = tested on: SK-MEL-28 melanoma
[49] = tested on: MDA-MB-435 melanoma
[50] = tested on: MCF7 breast
[51] = tested on: HCT-15 colon
[52] = tested on: SW-620 colon
[53] = tested on: NCI-H23 lung
[54] = tested on: MDA-MB-231 breast
[55] = tested on: KM12 colon
[56] = tested on: SN12C renal
[57] = tested on: OVCAR-4 ovarian

Q: Which GI50 [1] does the source give for `C[C@@]1(C(=O)Nc2ccc(F)nc2)CCCN1c1nc(Nc2cc(C3CC3)[nH]n2)c2cccn2n1` here?
A: 0.289 µM

Q: What about the TGI [1] of the same compound?
A: 2.68 µM

Q: And the GI50 [2]?
A: 0.63 µM

Q: What about the TGI [2] of the same compound?
A: 15.4 µM

Q: What about the GI50 [3] of the same compound?
A: 3.81 µM

Q: What about the TGI [3] of the same compound?
A: 15.4 µM

Q: And the GI50 [4]?
A: 0.239 µM

Q: What about the TGI [4] of the same compound?
A: 1.17 µM

Q: And the GI50 [5]?
A: 1.72 µM

Q: And the TGI [5]?
A: 7.19 µM

Q: And the GI50 [6]?
A: 0.18 µM

Q: What about the TGI [6] of the same compound?
A: 0.336 µM

Q: And the GI50 [7]?
A: 1.44 µM

Q: What about the TGI [7] of the same compound?
A: 6.55 µM

Q: And the GI50 [8]?
A: 0.837 µM

Q: What about the TGI [8] of the same compound?
A: 4.19 µM

Q: What about the GI50 [9] of the same compound?
A: 1.71 µM

Q: What about the TGI [9] of the same compound?
A: 7.62 µM

Q: And the GI50 [10]?
A: 8.33 µM

Q: What about the TGI [10] of the same compound?
A: 29.3 µM

Q: And the GI50 [11]?
A: 1.87 µM

Q: What about the TGI [11] of the same compound?
A: 13.2 µM

Q: What about the GI50 [12] of the same compound?
A: 0.557 µM

Q: And the TGI [12]?
A: 7.05 µM

Q: And the GI50 [13]?
A: 2.43 µM

Q: What about the TGI [13] of the same compound?
A: 16 µM

Q: What about the GI50 [14] of the same compound?
A: 5.48 µM

Q: What about the TGI [14] of the same compound?
A: 19.4 µM

Q: What about the GI50 [15] of the same compound?
A: 1.93 µM

Q: And the TGI [15]?
A: 13 µM

Q: And the GI50 [16]?
A: 0.651 µM

Q: What about the TGI [16] of the same compound?
A: 14.3 µM

Q: And the GI50 [17]?
A: < 0.01 µM

Q: What about the TGI [17] of the same compound?
A: 0.189 µM

Q: And the GI50 [18]?
A: 1.78 µM

Q: And the TGI [18]?
A: 15.9 µM

Q: What about the GI50 [19] of the same compound?
A: 10.6 µM

Q: What about the TGI [19] of the same compound?
A: 22.7 µM

Q: And the GI50 [20]?
A: 2.25 µM

Q: And the TGI [20]?
A: 12.7 µM

Q: What about the GI50 [21] of the same compound?
A: 1.51 µM

Q: What about the TGI [21] of the same compound?
A: 3.8 µM

Q: And the GI50 [22]?
A: 0.681 µM

Q: What about the TGI [22] of the same compound?
A: 9.59 µM

Q: And the GI50 [23]?
A: 2.49 µM

Q: And the TGI [23]?
A: 20.1 µM

Q: And the GI50 [24]?
A: 2.69 µM

Q: What about the TGI [24] of the same compound?
A: 14 µM

Q: And the GI50 [25]?
A: 4.09 µM

Q: What about the TGI [25] of the same compound?
A: 18.7 µM

Q: And the GI50 [26]?
A: 2.67 µM

Q: What about the TGI [26] of the same compound?
A: 14.4 µM

Q: And the GI50 [27]?
A: 2.12 µM

Q: What about the TGI [27] of the same compound?
A: 11.3 µM

Q: What about the GI50 [28] of the same compound?
A: < 0.01 µM

Q: And the TGI [28]?
A: 0.126 µM

Q: What about the GI50 [29] of the same compound?
A: 1.72 µM

Q: What about the TGI [29] of the same compound?
A: 17.1 µM

Q: And the GI50 [30]?
A: 0.224 µM

Q: What about the TGI [30] of the same compound?
A: 0.439 µM

Q: And the GI50 [31]?
A: 0.356 µM

Q: What about the TGI [31] of the same compound?
A: 16.6 µM

Q: And the GI50 [32]?
A: 1.5 µM

Q: What about the TGI [32] of the same compound?
A: 8.62 µM

Q: What about the GI50 [33] of the same compound?
A: 1.7 µM

Q: And the TGI [33]?
A: 16.8 µM

Q: And the GI50 [34]?
A: 0.201 µM

Q: And the TGI [34]?
A: 0.491 µM

Q: And the GI50 [35]?
A: 0.246 µM

Q: What about the TGI [35] of the same compound?
A: 0.561 µM

Q: And the GI50 [36]?
A: 0.694 µM

Q: And the TGI [36]?
A: 16.4 µM

Q: What about the GI50 [37] of the same compound?
A: < 0.01 µM

Q: And the TGI [37]?
A: 10.5 µM

Q: What about the GI50 [38] of the same compound?
A: 2.36 µM

Q: What about the TGI [38] of the same compound?
A: 10.7 µM

Q: What about the GI50 [39] of the same compound?
A: 1.3 µM

Q: What about the TGI [39] of the same compound?
A: 5.28 µM

Q: What about the GI50 [40] of the same compound?
A: 0.995 µM

Q: What about the TGI [40] of the same compound?
A: 12.5 µM

Q: What about the GI50 [41] of the same compound?
A: 1.91 µM

Q: What about the TGI [41] of the same compound?
A: 11 µM

Q: And the GI50 [42]?
A: 1.75 µM

Q: What about the TGI [42] of the same compound?
A: 15.7 µM

Q: What about the GI50 [43] of the same compound?
A: 0.842 µM

Q: And the TGI [43]?
A: 9.82 µM

Q: What about the GI50 [44] of the same compound?
A: 3.87 µM

Q: And the TGI [44]?
A: 20.1 µM

Q: What about the GI50 [45] of the same compound?
A: 0.864 µM

Q: And the TGI [45]?
A: 7.46 µM

Q: What about the GI50 [46] of the same compound?
A: 1.14 µM

Q: What about the TGI [46] of the same compound?
A: 3.57 µM

Q: And the GI50 [47]?
A: 3.75 µM

Q: What about the TGI [47] of the same compound?
A: 18.2 µM

Q: What about the GI50 [48] of the same compound?
A: 10.6 µM

Q: And the TGI [48]?
A: 22.7 µM

Q: What about the GI50 [49] of the same compound?
A: 14.4 µM

Q: What about the TGI [49] of the same compound?
A: 27.6 µM

Q: And the GI50 [50]?
A: 0.0388 µM

Q: What about the TGI [50] of the same compound?
A: 12.4 µM

Q: And the GI50 [51]?
A: 0.703 µM

Q: And the TGI [51]?
A: 12.2 µM

Q: And the GI50 [52]?
A: 0.644 µM

Q: What about the TGI [52] of the same compound?
A: 14.4 µM

Q: What about the GI50 [53] of the same compound?
A: 0.223 µM

Q: What about the TGI [53] of the same compound?
A: 3.87 µM

Q: What about the GI50 [54] of the same compound?
A: 1.58 µM

Q: And the TGI [54]?
A: 12.5 µM

Q: What about the GI50 [55] of the same compound?
A: 0.03 µM

Q: What about the TGI [55] of the same compound?
A: 0.204 µM

Q: And the GI50 [56]?
A: 2.07 µM

Q: What about the TGI [56] of the same compound?
A: 6.96 µM

Q: What about the GI50 [57] of the same compound?
A: 0.935 µM

Q: What about the TGI [57] of the same compound?
A: 4.21 µM

From PubChem BioAssay (NCI)
